The source of these data is patent US9486493B2, “Use of a peptide and an analgesic pharmaceutical agent” (priority 2007, dated 2016).

Where no end group is shown, it is not given here.

For assay [1], the system named is pain reaction in mice with inflammation. Description: Animal pain model of tumour metastasis (human ovarian cancer cells into a rear limb), tail dipping in 55° C water. Type of assay: in vivo. Particulars: for dose necessitated for a similar analgesic effect: control group lacking the inflammation; for analgesic activity (pain reaction): mice with inflammation, after two weeks. As for the experimental part:
In an animal pain model of tumour metastasis, inflammation was induced though the injection of a million human ovarian cancer cells into a rear limb. After two days, we observed a progressing inflammation induced by tumour take. The analgesic activity of biphaline was observed after two weeks, during acute pain caused by tail dipping in water at a temperature of 55° C. […] In the control group, which lacked the inflammation, a similar analgesic effect necessitated the use of a dose of 1 mg/kg.
In an animal pain model of tumour metastasis, inflammation was induced though the injection of a million human ovarian cancer cells into a rear limb. After two days, we observed a progressing inflammation induced by tumour take. The analgesic activity of (Tyr-Ser-Gly-Phe-NH—)2 was observed after two weeks, during acute pain caused by tail dipping in water at a temperature of 55° C. […] In the control group, which lacked the inflammation, a similar analgesic effect necessitated the use of a dose of 4 mg/kg.

Assay [2] deals with acute pain in rat with inflammation. Put plainly: Animal rheumatoid inflammation model (Mycobacterium butyricum into the tarsal joint), thermal stimulation of the tail. Type of assay: in vivo. Particulars: for antinociceptive effects: control group; for analgesic effect on acute pain: rat with inflammation, 0.5 mg/kg, after two weeks. On the procedure:
In an animal rheumatoid inflammation model, an anaesthetised rat was injected with homogenates of thermically inactivated Mycobacterium butyricum suspended in sunflower oil at a volume ratio of 1:1 into the tarsal joint. After two weeks inflammation was observed. The analgesic effect on acute pain was observed using thermal stimulation of the tail.

The conditions of assay [3]: intravenous administration; cited from earlier work.
For assay [4] the following is noted: directly into the subarachnoid space (intrathecal), rats; cited from earlier work.
Assay [5] deals with pain reaction in mice with inflammation. Put plainly: Freund's adjuvant limb inflammation in mice, acute pain by tail dipping in 55° C water. Type of assay: in vivo. As for the experimental part: Inflammation was induced in mice through the administration of Freund's adjuvant into a limb. After two days, a progressing inflammation was observed. The analgesic activity of biphalin was observed following a week, during acute pain caused by tail dipping in water at a temperature of 55° C.

The conditions of assay [6]: humans; cited from earlier work.

On to “(Tyr-Ser-Gly-Phe-NH—)2 (YSGF; also: dimer linked via C-terminal NH hydrazide bridge) [opioid peptide, analogue of biphalin]”, for which the “dose necessitated for a similar analgesic effect” value in assay [1] amounted to 4 mg/kg. The “analgesic activity (pain reaction)” value in assay [1] (50 μg/kg intraperitoneal) was “complete disappearance of the pain reaction”.
On to `C[C@@H](NC(=O)[C@@H](N)Cc1ccc(O)cc1)C(=O)NCC(=O)N[C@@H](Cc1ccccc1)C(=O)NNC(=O)[C@H](Cc1ccccc1)NC(=O)CNC(=O)[C@@H](C)NC(=O)[C@@H](N)Cc1ccc(O)cc1` [biphalin], for which the antinociceptive effects result in assay [2] (same amount (0.5 mg/kg)) was “no antinociceptive effects were observed”. Also, the “analgesic effect on acute pain” value in assay [2] is listed as “completely blocked pain effects”. In addition, the “activity relative to morphine” value in assay [3] is reported as “equivalent to that of morphine”. The “activity relative to morphine administered the same way” value in assay [4] is listed as approximately 1000 fold. Further, the “analgesic activity (pain reaction)” value in assay [5] (control group lacking the inflammation, same dose 50 μg/kg intravenous) is recorded as “no effect was observed”; in assay [5] (mice with inflammation, 50 μg/kg intravenous, one week after Freund's adjuvant), “complete disappearance of the pain reaction”; in assay [1] (100 μg/kg intraperitoneal) it was “complete disappearance of the pain reaction”. In assay [1], the “dose necessitated for a similar analgesic effect” value is on record as 1 mg/kg.
For (Tyr-D-Thr-Gly-Trp-NH—)2, the antinociceptive effects entry in assay [2] (after administration of 4 mg/kg) was “no antinociceptive effects were observed”. Further, the “analgesic effect on acute pain” value in assay [2] is “completely blocked pain effects”.
For the compound `CN1CC[C@]23c4c5ccc(O)c4O[C@H]2[C@@H](O)C=C[C@H]3[C@H]1C5` [morphine], in assay [6], the “minimum effective dose usually used as an initial analgesic dose” value is given as 1 mg.
